From patent publication US8609858B2, “Spiro derivatives of parthenin as novel anticancer agents” (Council of Scientific & Industrial Research, priority 2008, dated 2013)

How the values were obtained:
[1] = test system: Ehrlich Ascites Carcinoma (EAC); assay: Anti tumor activity on Ehrlich Ascites Carcinoma (EAC) bearing mice; format: in vivo; conditions: for % Tumor growth inhibition / Ascitic fluid volume (ml) Mean ± SE / Tumor cells in ascitic fluid (×10^7) Mean ± SE: nine days, day 12
Excerpt: (§1) Non-inbred swiss albino mice from an in-house colony were used in the present study. The breeding and experimental animals were housed in standard size polycarbonate cages providing internationally recommended space for each animal. Animals were fed balanced mice feed supplied by MIs Ashirwad Industries, Chandigarh (India) and autoclaved water was available ad libitum. Animals were cared as per the guide for the care and use of laboratory animals (1996), ILAR, Washington D.C. They were housed in controlled conditions of temperature (23±2° C.), humidity (50-60%) and 12:12 hrs of light: dark cycle. The study and the number of animals used were approved by the institutional animal ethics committee, IIIM, Jammu, India. The study was conducted as per the protocols of National Cancer Institute (NCl), USA (Geran et al., 1972).
Ehrlich Ascites Carcinoma (EAC) was propagated by transplanting 1×10^7 cells from an animal bearing 8-10 days old Ehrlich Ascites Carcinoma, into the peritoneal cavity of non-inbreed swiss mice. For testing, mice of the same sex weighing 20 ±3 g bearing ascites tumor were selected. 1×10^7 cells obtained from an animal bearing 8-10 days old ascites tumor were injected into peritoneal cavity of all animals used for testing (0 Day). On next day animals were randomized and divided into test groups (7 animals in each test group) and one tumor control group (10 animals). Test groups were treated with different doses of Parthenin (10 mg/kg, 25 mg/kg and 50 mg/kg) and its derivative Compound-17 (10 mg/kg, 25 mg/kg and 50 mg/kg, 100 mg/kg and 200 mg/kg) suspension in 1% gum acacia in their respective group intraperitonealy for nine consecutive days. Another test group was administered 5 FU @ 20 mg/kg i.p and served as positive control. The tumor control group was similarly administered normal saline (0.2 ml i.p). The percent tumor growth inhibition were measured on day 12 with respect to volume of ascitic fluid and the number of tumor cells in the ascitic fluid of peritoneal cavity (Geran et al., 1972; Singh et al., 2007).
The percent tumor growth inhibition was calculated as follow. % growth inhibition=100×(Average no. of cells in control group−Average no. of cells in test group)/Average no. of cells in control group Results: […]

SW-620 = assay: In vitro cytotoxicity screening (sulphodamine B dye), SW-620; format: cell-based; conditions: Homo sapiens
Method: Cells at sub confluent stage were harvested from the flask by treatment with trypsin (0.5% in PBS containing 0.02% EDTA) for determination of cytotoxicity. […] The cell suspensions of required cell density were prepared in complete growth medium with gentamycin (50 μg/ml) for determination of cytotoxicity. The cells (100 μl/well) were inoculated in 96 well tissue culture plates. The cells were allowed to grow for 24 hrs temperature of 37° C. and in a humidified atmosphere of 5% CO2 in air. Stock solution of (20 mM) of test material was prepared in DMSO. The stock solution was serially diluted with complete growth medium containing 50 μg/ml of gentamycin to obtain […] working test solutions of 1., 2, 5, 10, 50 and 100 μM.
The media were supplemented with FCS (10%), penicillin (100 Units/ml), streptomycin (100 μg/ml) and glutamine (2 mM) and cells were grown in CO2 incubator (Hera cell, Heraeus, USA) at 37° C. with 90% humidity and 5% CO2.

[2] = test system: Ehrlich Ascites Tumor (EAT); assay: Anti tumor activity on solid Ehrlich Ascites Tumor (EAT) bearing mice; format: in vivo; conditions: for % Tumor growth inhibition / Tumor Weight (mg) Mean ± SE: nine days, day 13
Excerpt: as §1
Parthenin and its derivative Compound-17 were evaluated against solid Ehrlich Ascites Tumor (EAT) models at different doses. A standard procedure for experiment was as followed:
Animals of the same sex weighing 20±3 g were injected 1×10^7 cells collected from the peritoneal cavity of non-inbred swiss mice, bearing 8-10 days old tumor cells, into the right thigh, intramuscularly (on Day 1). On next day animals were randomized and divided into test groups (7 animals in each test group) and one tumor control group (10 animals). Test groups were treated with different doses of Parthenin (10 mg/kg, 25 mg/kg and 50 mg/kg) and its derivative Compound-17 (10 mg/kg, 25 mg/kg and 50 mg/kg, 100 mg/kg and 200 mg/kg) suspension in 1% gum acacia in, their respective group intraperitonealy for nine consecutive days. Another test group was administered 5-FU @ 22 mg/kg i.p and served as positive control. The tumor contra group was similarly administered normal saline (0.2 ml i.p). The percent tumor growth-inhibition was measured on day 13 with respect to their tumor weight (Geran et al., 1972): Shortest and longest diameters of the tumor mass were measured with the help of vernier caliper and tumor weight (mg) was calculated by using following formula Tumor weight (mg)=Length (mm)×(Width (mm)^2/2 The average tumor weight for each group was calculated and the percent tumor growth inhibition in treated groups was calculated as follows: % Tumor Growth Inhibition=100×(Average tumor weight of control group−Average tumor weight of test group)/Average tumor weight of control group Anti Tumor Activity of Parthenin and its Derivative Compound-17 on Ehrlich Ascites Carcinoma (EAC)

## C[C@H]1CC[C@@H]2[C@@H](OC(=O)C23CC(c2c4ccccc4cc4ccccc24)=NO3)[C@]2(C)C(=O)C=C[C@@]12O (stereo partly drawn) [Compound -17]
[1]; 10 mg/kg i.p.
  % Tumor growth inhibition: 7.74%
  Ascitic fluid volume (ml) Mean ± SE: 4.07 ± 0.35 mL
  Tumor cells in ascitic fluid (×10^7) Mean ± SE: 78.42 ± 2.90 ×10^7
[1]; 25 mg/kg i.p.
  % Tumor growth inhibition: 19.16%
  Ascitic fluid volume (ml) Mean ± SE: 3.62 ± 0.32 mL
  Tumor cells in ascitic fluid (×10^7) Mean ± SE: 68.71 ± 3.16 ×10^7
[1]; 50 mg/kg i.p.
  % Tumor growth inhibition: 27.23%
  Ascitic fluid volume (ml) Mean ± SE: 2.85 ± 0.37 mL
  Tumor cells in ascitic fluid (×10^7) Mean ± SE: 61.85 ± 4.20 ×10^7
[1]; 100 mg/kg i.p.
  % Tumor growth inhibition: 60.50%
  Ascitic fluid volume (ml) Mean ± SE: 2.07 ± 0.33 mL
  Tumor cells in ascitic fluid (×10^7) Mean ± SE: 33.57 ± 2.60 ×10^7
[1]; 200 mg/kg i.p., EAC bearing mice
  mortality of test animals: All animals died by 3rd day
SW-620; SW-620 colon cancer cell line
  IC50: 4.3 µM
SW-620; at 5 μM, SW-620, read-out: cell growth inhibition
  inhibition at 5 µM: 72%
[2]; 10 mg/kg i.p.
  % Tumor growth inhibition: 9.44%
  Tumor Weight (mg) Mean ± SE: 1547.14 ± 36.63 mg
[2]; 25 mg/kg i.p.
  % Tumor growth inhibition: 15.38%
  Tumor Weight (mg) Mean ± SE: 1445.71 ± 41.52 mg
[2]; 50 mg/kg i.p.
  % Tumor growth inhibition: 22.03%
  Tumor Weight (mg) Mean ± SE: 1332.14 ± 32.59 mg
[2]; 100 mg/kg i.p.
  % Tumor growth inhibition: 35.11%
  Tumor Weight (mg) Mean ± SE: 1108.57 ± 38.02 mg
[2]; 200 mg/kg i.p., EAT bearing mice
  mortality of test animals: All animals died by 3rd day
